Source: patent publication US8119671B2, “Isoxazoline-substituted benzamide compound and pest control agent” (Nissan Chemical Industries, Ltd., priority 2007, dated 2012)

Legend:
Assay type in all cases: in vivo
[1] = tested on: Bemisia argentifolii; experiment: Test Example 9: Mortality Test for Bemisia argentifolii; conditions: in Solanum lycopersicum, 144 h
Description: (§1) In a styrol cup having an inner diameter of 7 cm, a wet filtration paper was laid, and on the paper, a cut-out leaf of tomato on which Bemisia argentifolii laid eggs (10 eggs/leaf) was laid. A 10% emulsifiable concentrate of the compound of the present invention (depending on the type of the compound, a 10% wettable powder was subjected to the test) was diluted with water containing a spreader to prepare a drug solution in a concentration of 500 ppm. The drug solution was dusted using a rotary dusting tower in an amount of 2.5 mL per styrol cup and the cup was capped and stored in a thermostat room of 25° C. The number of killed larvae after 6 days was measured and the mortality was calculated from the same calculation formula as that in Test Example 1. Here, the test was carried out with two replications.

[2] = tested on: Frankliniella occidentalis; experiment: Test Example 5: Mortality Test for Frankliniella occidentalis; conditions: 48 h
Description: as §1, with “a” for “a cut-out”, “kidney bean cut out so as to have the same diameter as the inner diameter of the cup” for “tomato on which Bemisia argentifolii laid eggs (10 eggs/leaf)”, “laid, followed by inoculating ten 1 instar larvae of Frankliniella occidentalis per leaf to the leaf.” for “laid.”, “2” for “6”

[3] = tested on: Liriomyza trifolii; experiment: Test Example 13: Mortality Test for Liriomyza trifolii; conditions: 144 h, drug solution 500 ppm, kidney bean leaf with eggs immersed, after 6 days
Description: (§2) A 10% emulsifiable concentrate of the compound of the present invention (depending on the type of the compound, a 10% wettable powder was subjected to the test) was diluted with water containing a spreader to prepare a drug solution in a concentration of 500 ppm. In this drug solution, a leaf of kidney bean on which Liriomyza trifolii laid eggs (10 eggs/leaf) and which was cut out to a diameter of 7 cm was immersed for about 10 seconds and was air-dried and then laid on a wet filtration paper laid in a styrol cup having an inner diameter of 7 cm. The styrol cup was capped and stored in a thermostat room of 25° C. The number of killed larvae after 6 days was measured and the mortality was calculated from the same calculation formula as that in Test Example 1. Here, the test was carried out with two replications.

[4] = tested on: Tetranychus urticae; experiment: Test Example 14: Mortality Test for Tetranychus urticae; conditions: 144 h
Description: as §1, with “a” for “a cut-out”, “kidney bean cut out so as to have the same diameter as the inner diameter of the cup” for “tomato on which Bemisia argentifolii laid eggs (10 eggs/leaf)”, “laid, followed by inoculating 10 larvae of Tetranychus urticae per leaf to the leaf.” for “laid.”

[5] = tested on: Spodoptera litura; experiment: Test Example 2: Mortality Test for Spodoptera litura; conditions: 144 h
Description: as §2, with “10” for “500”, “canarium album” for “kidney bean on which Liriomyza trifolii laid eggs (10 eggs/leaf) and which was cut out to a diameter of 7 cm”, “put into” for “laid on”, “petri dish. In the petri dish, five 2 instar larvae” for “wet filtration paper laid in a styrol cup having an inner diameter”, “Spodoptera litura per petri dish were released and the petri dish” for “7 cm. The styrol cup”

[6] = tested on: Nilaparvata lugens; experiment: Test Example 8: Mortality Test for Nilaparvata lugens; conditions: 144 h, drug solution 500 ppm, Oryza sativa leaf sheath immersed, 2 instar larvae, after 6 days
Description: as §2, with “leaf sheath” for “leaf”, “Oryza sativa” for “kidney bean on which Liriomyza trifolii laid eggs (10 eggs/leaf) and which was cut out to a diameter of 7 cm”, “put into” for “laid on”, “test tube. In the test tube, five 2 instar larvae” for “wet filtration paper laid in a styrol cup having an inner diameter”, “Nilaparvata lugens per test tube were released and the test tube” for “7 cm. The styrol cup”, “capped with a sponge” for “capped”

[7] = tested on: Myzus persicae; experiment: Test Example 10: Mortality Test for Myzus persicae; conditions: 144 h
Description: In a glass petri dish having an inner diameter of 3 cm, a wet absorbent cotton was laid, and on the cotton, a leaf of canarium album cut out so as to have the same diameter as the inner diameter of the petri dish was laid, followed by releasing 4 apterous imagines of Myzus persicae on the leaf. After one day, 10% emulsifiable concentrate of the compound of the present invention (depending on the type of the compound, a 10% wettable powder was subjected to the test) was diluted with water containing a spreader to prepare a drug solution in a concentration of 500 ppm. The drug solution was dusted using a rotary dusting tower (2.5 mg/cm^2) and the petri dish was capped and stored in a thermostat room of 25° C. The number of killed imagines after 6 days was measured and the mortality was calculated from the same calculation formula as that in Test Example 1. Here, the test was carried out with two replications.

[8] = tested on: Eysarcoris lewisi; experiment: Test Example 7: Mortality Test for Eysarcoris lewisi; conditions: in Oryza sativa, 48 h
Description: A 10% emulsifiable concentrate of the compound of the present invention (depending on the type of the compound, a 10% wettable powder was subjected to the test) was diluted with water containing a spreader to prepare a drug solution in a concentration of 500 ppm. In this drug solution, a leaf sheath of Oryza sativa was immersed for about 10 seconds and was air-dried and then put into a test tube. In the test tube, five 1 instar larvae of Eysarcoris lewisi per one test tube were released and the test tube was capped with a sponge and stored in a thermostat room of 25° C. The number of killed larvae after 2 days was measured and the mortality was calculated from the same calculation formula as that in Test Example 1. Here, the test was carried out with two replications.

Cc1cc(C2=NOC(c3cc(Cl)cc(Cl)c3)(C(F)(F)F)C2)ccc1C(=O)NC1(c2ccccn2)CC1 (centres unmarked) [No. 1-007, 4-[5-(3,5-Dichlorophenyl)-5-trifluoromethyl-4,5-dihydroisoxazole-3-yl]-2-methyl-N-[1-(2-pyridyl)cyclopropyl]benzamide]
≥ 80%: mortality at 500 ppm [1] | mortality at 500 ppm [2] | mortality at 500 ppm [3] | mortality at 500 ppm [4] | mortality at 10 ppm [5] | mortality at 500 ppm [6] | mortality at 500 ppm [7] | mortality at 500 ppm [8]
